The test system of series [1] is human breast adenocarcinoma cell line, MCF-7. Kind of series: resazurin viability assay, 72 h (Table 1). As to conditions: MCF7, 72h incubation, 156 nM-100 μM. It counts as cell-based. The source says: (§1) In our experiments three different cell lines were used. Cells were purchased from the American Type Culture Collection (ATCC, Manassas, Va., USA). The human breast adenocarcinoma cell line, MCF-7 cells were maintained in Dulbecco's Modified Eagle Medium/Nutrient Mixture F-12 (DMEM/F12) 10% fetal calf serum (FCS, Gibco) and mouse mammary carcinoma 4T1 and human promyelocytic leukemia, HL-60 cells were maintained in Roswell Park Memorial Institute 1640 medium (RPMI-1640) 10% FCS. Media were supplemented with 2 mM GlutaMAX, and 100 U/mL penicillin, 100 μg/mL streptomycin (Life Technologies, Carlsbad, Calif., USA). Cell cultures were maintained at 37° C. in a humidified incubator in an atmosphere of 5% CO2 (Sanyo, Japan).
(§2) For viability assays cells were seeded in 96 well plates (MCF7 and 4T1: 6000, HL60: 120.000 cells/well) and incubated overnight. Compounds were dissolved in dimethyl sulfoxide (DMSO). Cells were treated with an increasing concentration of compounds having the general formula (I.) (156 nM-100 μM). Cell viability was determined after 72h incubation. Resazurin reagent (Sigma-Aldrich) was dissolved in PBS (pH 7.4) at 0.15 mg/ml concentration, sterile filtered (0.22 μm, Merck Millipore) and aliquoted at −20° C. Resazurin reagent (Sigma-Aldrich) was added at a final concentration of 25 μg/ml. After 2 hours incubation at 37° C. 5% CO2 fluorescence (530 nm excitation/580 nm emission) was recorded on a multimode microplate reader (Cytofluor4000, PerSeptive Biosytems). Viability was calculated with relation to untreated control cells and blank wells containing media without cells. IC50 values (50% inhibiting concentration) were calculated by GraphPad Prism® 5 (La Jolla, Calif., USA).
Background: Resazurin is reduced to fluorescent resorufin, in cell work by metabolically active cells.

Series [2] concerns mouse mammary carcinoma 4T1. The experiment in a line: resazurin viability assay, 72 h (Table 1). It counts as cell-based. As to conditions: 72h incubation, 156 nM-100 μM.
Source text: as §1, §2

For series [3], the system named is human promyelocytic leukemia, HL-60 cells. Kind of series: resazurin viability assay, 72 h (Table 1). The format is cell-based. As to conditions: 72h incubation, 156 nM-100 μM.
Source text: as §1, §2

From patent publication US20220064167A1, “IMIDAZO-PYRAZOLE CARBOXAMIDE DERIVATIVES AS ANTICANCER AGENTS AND THE SYNTHESIS THEREOF” (AVIDIN KFT., priority 2018, published 2022) come the findings set out here.

What is called pIC50 is the IC50 on a negative log10 scale, so that one unit is a factor of ten. A high value points to a small IC50. One may read the melting point as the temperature of the solid-liquid transition.

pIC50: −log10 of the molar value.

With `CN(C)c1ccc(NC(=O)c2cnn3c(NC(C)(C)CC(C)(C)C)c(C(C)(C)C)[nH]c23)cc1` [Example 57, 2-(Tert-butyl)-N-(4-(dimethylamino)phenyl)-3-((2,4,4-trimethylpentan-2-yl)amino)-1H-imidazo[1,2-b]pyrazole-7-carboxamide], the melting point fell in the range of 176 to 177 °C. Further, the pIC50 in series [1] was 5.00. Moreover, the negative-log IC50 (pIC50) in series [2] is 4.93. In series [3], the pIC50 was 6.53.
Take `CC(C)(C)CC(C)(C)Nc1c(C(C)(C)C)[nH]c2c(C(=O)Nc3ccccc3F)cnn12` [Example 48, 2-(Tert-butyl)-N-(2-fluorophenyl)-3-((2,4,4-trimethylpentan-2-yl)amino)-1H-imidazo[1,2-b]pyrazole-7-carboxamide]: the melting point lay in the range of 153 to 154 °C. In addition, in series [1], the pIC50 is under 4.30. In series [2], this molecule showed a pIC50 of under 4.30. Besides, in series [3], the pIC50 was 5.69.
On to `CC(C)(C)CC(C)(C)Nc1c(C(C)(C)C)[nH]c2c(C(=O)Nc3ccncc3)cnn12` [Example 37, 2-(Tert-butyl)-N-(pyridin-4-yl)-3-((2,4,4-trimethylpentan-2-yl)amino)-1H-imidazo[1,2-b]pyrazole-7-carboxamide], for which the melting point was in the range of 185 to 186 °C. In series [1], this molecule gave a pIC50 of 5.59. The molecule further had a pIC50 in series [2] of 5.36. The same molecule gave a pIC50 in series [3] of 5.57.
Take `CC(C)(C)CC(C)(C)Nc1c(C(C)(C)C)[nH]c2c(C(=O)Nc3cccc(F)c3)cnn12` [Example 49, 2-(Tert-butyl)-N-(3-fluorophenyl)-3-((2,4,4-trimethylpentan-2-yl)amino)-1H-imidazo[1,2-b]pyrazole-7-carboxamide]: the melting point was 159 °C. Besides, the pIC50 in series [1] is 4.76. The molecule further showed a pIC50 in series [2] of 4.63. In addition, in series [3], the pIC50 was 5.35.
Turning to `CC(C)(C)CC(C)(C)Nc1c(C(C)(C)C)[nH]c2c(C(=O)Nc3ccc(C#N)cc3)cnn12` [Example 54, 2-(Tert-butyl)-N-(4-cyanophenyl)-3-((2,4,4-trimethylpentan-2-yl)amino)-1H-imidazo[1,2-b]pyrazole-7-carboxamide], the melting point was 199 °C. In addition, the negative logarithm of the IC50 (pIC50) in series [1] is 5.01. Further, in series [2], the pIC50 was under 4.30. Also, in series [3], the pIC50 was 5.82.
On to `CC(C)(C)CC(C)(C)Nc1c(C(C)(C)C)[nH]c2c(C(=O)NC3CC3)cnn12` [Example 31, 2-(Tert-butyl)-N-cyclopropyl-3-((2,4,4-trimethylpentan-2-yl)amino)-1H-imidazo[1,2-b]pyrazole-7-carboxamide], for which the melting point is 161 °C. This molecule gave a pIC50 in series [1] of 5.77. Besides, in series [2], the pIC50 is 5.40. Further, the pIC50 in series [3] was 5.79.
`CC(C)(C)CC(C)(C)Nc1c(C(C)(C)C)[nH]c2c(C(=O)Nc3ccc(F)cc3F)cnn12` [Example 58, 2-(Tert-butyl)-N-(2,4-difluorophenyl)-3-((2,4,4-trimethylpentan-2-yl)amino)-1H-imidazo[1,2-b]pyrazole-7-carboxamide] displayed a melting point of 174 °C. In addition, the pIC50 in series [1] was under 4.30. This molecule had a pIC50 in series [2] of under 4.30. In series [3], this molecule showed a pIC50 of 6.20.
`CC(C)(C)CC(C)(C)Nc1c(C(C)(C)C)[nH]c2c(C(=O)NCc3ccccc3)cnn12` [Example 33, N-Benzyl-2-(tert-butyl)-3-((2,4,4-trimethylpentan-2-yl)amino)-1H-imidazo[1,2-b]pyrazole-7-carboxamide] gave a melting point of 118 to 119 °C. The pIC50 in series [1] is 5.07. Moreover, in series [2], the pIC50 is 5.03. This molecule also had a pIC50 in series [3] of 5.20.
On to `CC(C)(C)CC(C)(C)Nc1c(C(C)(C)C)[nH]c2c(C(=O)Nc3ccc(Cl)cc3)cnn12` [Example 51, 2-(Tert-butyl)-N-(4-chlorophenyl)-3-((2,4,4-trimethylpentan-2-yl)amino)-1H-imidazo[1,2-b]pyrazole-7-carboxamide], for which the pIC50 was 4.53 in series [1], 4.51 in series [2] and 5.52 in series [3].
